Structures can show the parent of a compound that is named as a salt. Where two headings read alike, the source gives them in different places.
Legend:
[1] = test system: yeast target and decoy cells; experiment: Growth (O.D.600) of the target/decoy yeast co-cultures in the MicroSource library screen; assay type: cell-based, Saccharomyces cerevisiae; settings: both concentrations (5 μg/ml and 0.5 μg/ml)
Description: The plates were incubated at 30° C.

Erg11p = Erg11p (Saccharomyces cerevisiae, UniProt P10614); settings: 25 target and 25,000 decoy cells (1:1000), 225 μl, 30° C., up to ten days
Description: Target yeast cells overexpressing the ERG11 gene and GFP were mixed with decoy cells at a ratio of 1:1000 and portioned into 96-well plates. Each well contained 25 target cells and 25,000 decoy cells in 0.225 ml YM medium plus 2% casamino acids. 560 generic drugs from the MicroSource™ library were dispensed to each well to a final concentration of 5 μg/ml or 0.5 μg/ml and 1% DMSO. The plates were incubated at 30° C. for ten days.
To determine the specificity of the TDS assay, a chemical library of 560 compounds was screened using the same strains described in FIG. 2. […] The conditions chosen for the co-culture were 25 target cells and 25,000 decoy cells (1:1000 target: decoy ratio) in a volume of 225 μl.
Overnight cultures of the target and decoy cells were grown in YM medium plus 2% casamino acids to maintain selection for both episomal plasmids. One large batch of fresh medium (YM-Cas) was prepared that contained both target and decoy cells. This culture was diluted to 1×10^5 cells/ml and dispensed into the 96-well plates. Drugs from the Microsource library were then added to the cultures at two concentrations: 5 μg/ml plus 1% DMSO; and 0.5 μg/ml plus 0.1% DMSO. The plates were incubated at 30° C. Fluorescence and O.D.600 measurements were taken twice daily for ten days.

[2] = biological target: T1, ERG11 gene product, lanosterol 14α-demethylase (Saccharomyces cerevisiae, UniProt P10614); experiment: TDS co-culture pilot study with clotrimazole: ERG11/GFP-overexpressing target cells mixed with decoy cells, fluorescence readout; assay type: cell-based; settings: 30° C., 88 h
T1 construct: expressed in transfected cells; host or cells: S. cerevisiae target strain ABY676 (plasmids pAB98 GFP, pAB99 ERG11), co-cultured with decoy strain ABY674 (empty vectors YEplac195, YEplac112)
Description: FIG. 2: A Signal to noise ratios of ERG11-target and decoy co-cultures grown in the presence of clotrimazole. Cultures were prepared at various ratios of target: decoy cells (columns). Each ratio was also prepared at various total number of cells per well and are indicated at the top. Clotrimazole, which inhibits the ERG11 gene product, was introduced by serial dilution (rows). The concentrations of clotrimazole are indicated to the left of the table. The volume of medium in each well was 0.225 ml. The plate was allowed to incubate at 30° C. for 88 h. Fluorescence signal was determined by subtracting the fluorescent values from a medium control plate from the fluorescence values of each well in the test plate. Signal to noise ratios were determined by dividing these corrected values with the corresponding values in the no-drug well in the bottom row. B O.D.600 values of co-cultures in each well after growth. C A fluorescent image of the source plate.
To determine the optimal assay conditions, various target:decoy ratios were tested in the presence of different clotrimazole concentrations (FIG. 2). Clotrimazole is an anti-fungal compound that inhibits the […] gene product, lanosterol 14α-demethylase, a sterol biosynthetic enzyme (Georgopapadakou and Walsh, 1996, Antimicrob Agents Chemother 40:279-291). […]
Target and decoy cells were mixed at 1:10, 1:100 and 1:1000 ratios in the presence of various concentrations of clotrimazole. […] Following incubation at 30° C. for 88 h, the fluorescence from each well was determined. The fluorescent values were corrected for the background fluorescence of the medium are represented as the fold increase over the fluorescent signal from the corresponding no-drug treatment.
The amount of growth of the cells was determined by measuring optical density at 600 nm in a Molecular Devices Spectra Max 250 plate spectrophotometer (FIG. 2B). A fluorescent image of the plate, which served as the source for quantitation of the fluorescent signals, is also presented (FIG. 2C).

Erg11p, sequence (P10614 whole entry): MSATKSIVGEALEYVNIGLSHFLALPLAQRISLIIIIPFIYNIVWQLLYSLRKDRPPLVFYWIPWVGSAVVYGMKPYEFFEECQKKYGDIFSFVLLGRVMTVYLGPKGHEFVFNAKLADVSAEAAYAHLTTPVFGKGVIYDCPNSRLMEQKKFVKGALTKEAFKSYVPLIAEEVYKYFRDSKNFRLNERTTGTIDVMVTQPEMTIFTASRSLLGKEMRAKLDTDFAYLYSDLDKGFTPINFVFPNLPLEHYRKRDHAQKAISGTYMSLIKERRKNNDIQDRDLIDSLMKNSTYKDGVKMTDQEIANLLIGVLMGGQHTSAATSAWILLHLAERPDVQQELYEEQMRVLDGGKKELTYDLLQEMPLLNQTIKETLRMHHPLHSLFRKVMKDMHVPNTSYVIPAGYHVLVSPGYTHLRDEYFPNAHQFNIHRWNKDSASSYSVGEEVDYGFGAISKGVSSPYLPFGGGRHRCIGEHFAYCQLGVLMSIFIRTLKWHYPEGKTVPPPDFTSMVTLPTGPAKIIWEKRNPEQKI
T1 sequence (P10614 whole entry): as above

SMILES	growth inhibition of co-culture [1]	fluorescent signal of co-culture versus no-drug treatment (Erg11p; 0.5 μg/ml drug plus 0.1% DMSO)	fluorescent signal of co-culture versus no-drug treatment (Erg11p; 5 μg/ml drug plus 1% DMSO)	further results
C[CH2][Hg][S]c1ccccc1C(=O)[O-].[Na+] [thimerosol]	severely inhibited growth	–	–	–
CN[C@@H](C)[C@H](O)c1ccccc1 [ephedrine-HCl]	severely inhibited growth	–	–	–
Clc1ccccc1C(c1ccccc1)(c1ccccc1)n1ccnc1 [clotrimazole]	–	significant fluorescent signal	significant fluorescent signal	clotrimazole concentration range producing significant fluorescent signals ([2]; 1:10 and 1:100 target:decoy ratios, highest density of cells per well): 0.2 to 5.6 µg/mL; clotrimazole concentration range producing significant fluorescent signals ([2]; 1:10 and 1:100 target:decoy ratios, serial dilutions of cells): 0.2 to 2.8 µg/mL; clotrimazole concentration range producing significant fluorescent signals ([2]; 1:1000 target:decoy ratio, each of the cell densities): 0.2 to 5.6 µg/mL
CC(=O)N1CCN(c2ccc(OCC3COC(Cn4ccnc4)(c4ccc(Cl)cc4Cl)O3)cc2)CC1 (stereo not drawn) [ketoconazole]	–	neither inhibited growth nor produced a positive signal	significant signal	–
CCCCOc1ccc(C(=O)CCN2CCCCC2)cc1 [dyclonine-HCl]	severely inhibited growth	–	–	–
Clc1ccc(COC(Cn2ccnc2)c2ccc(Cl)cc2Cl)c(Cl)c1 (stereo not drawn) [miconazole]	–	significant positive signals	too severe a growth inhibition to produce positive signals	–

From patent US6518035B1, “Targeted methods of drug screening using co-culture methods” (Rosetta Inpharmatics, Inc., priority 1998, dated 2003)
